According to patent US7504537B2, “Hydroxamic acid derivative and MMP inhibitor containing the same as active ingredient” (Dainippon Sumitomo Pharma Co., Ltd., priority 2001, dated 2009):

What was measured:
Format in all cases: biochemical
MMP-13 = biological target: T1, MMP-13 (Homo sapiens, UniProt P45452); assay: Test 2 Test on MMP-13 inhibition activity (fluorogenic peptide substrate); details: activated MMP-13, 37° C.
T1 construct: a fragment of 767 bp encoding original 84 amino acids of complete MMP-13 and encoding 164 amino acids; made in house; host or cells: E. coli BL21 (DE3), pET11a
Text: Test 2 Test on MMP-13 Inhibition Activity
In order to subcloning C-terminal truncated cDNA in which the cDNA encodes procollagenase-3 (proMMP-13) (J. Biol. Chem., 269(24), 16766-16773 (1994)), two synthesized oligonucleotide primer fragments: • (5′-[…]-3′ and 5′-[…]-3′: In former the sequence for specific NdeI site (under line) including first methionine is included, and in latter terminal codon and BamHI site (under lined) are included.) were used with human cartilage cell cDNA library for PCR. Due to these primers and Pfu DNA polymelase (STRATAGENE) for PCR, there was obtained a fragment of 767 bp encoding original 84 amino acids of complete MMP-13 and encoding 164 amino acids. The said fragment was cut out with digestion by NdeI and BamHI, and the fragment was annealed to NdeI site and BamHI site of pET11a (STRATAGENE). The recombinant plasmid was transformed into E. coli BL21 (DE3) and the bacteria were cultivated. The crude cell extract was prepared according to the method of Biochemistry. The said extract was dialyzed with 20 mM Tris-HCl (pH 7.2)/5 mM CaCl2/0.02% NaN3 solution, treated with SP-sepharose HP column (1.6×10 cm, Amasham-Pharmacia biotec), and the eluting was carried out by liner gradient from 0 to 0.3 m of sodium chloride solution (50 ml) (partially purified proMMP-13 was eluted at about 0.2M.) The eluted fraction was dialyzed with 20 mM Tris-HCl (pH 7.9)/5 mM CaCl2/200 mM (NH4)2SO4/0.02% NaN3 solution, treated with phenylsepharose HP column (1.6×5 cm, Amersham-Pharmacia biotec), and the eluting was carried out by liner gradient from 0.2M to 0M sulfuric acid ammonium solution (purified proMMP-13 was eluted at about 50 mM.). The eluted fraction was concentrated by YM-5 ultrafilter membrane, and activated by 4-aminophenyl mercuric acetate. Activated MMP-13 was treated with gel filtration chromatography in accordance with the method of Biochemistry to be separated from propeptide. Inhibiting Test Method
Enzyme activity test was carried out by the method of G. Knight (FEBS Lett., 296(3), 263-266 (1992)).
A mixture of activated MMP-13 (20 nM, 10 μl), buffer solution (70 μl, pH 7.5 solution containing 100 mM Tris-HCl solution, 10 mM calcium chloride solution, 100 mM sodium chloride solution and 0.05% Briji-35 solution), MOCAc-Pro-Leu-Gly-Leu-A2pr(DNP)-Ala-Arg-NH2 in 0.1% DMSO solution (100 μM, 10 μl) and a test compound in DMSO solution was incubated for 1.5 hours at 37° C. The mixture was put on a 96 well-plate (100 μl/wel), and the plate was incubated at 37° C. The enzyme activity in the presence of the compound was measured based on fluorescence intensity (λex 320 nm, λem 405 nm), and IC50 was calculated.

MMP-1 = biological target: T2, MMP-1 (Homo sapiens, UniProt P03956); assay: Test 6 MMP-1 inhibition activity test; details: MMP-1 from human rheumatic synovium fibroblast, activated with AMPA
T2 construct: calbiochem cat; purchased calbiochem 444208; host or cells: human rheumatic synovium fibroblast
T2 sequence (P03956 100-469): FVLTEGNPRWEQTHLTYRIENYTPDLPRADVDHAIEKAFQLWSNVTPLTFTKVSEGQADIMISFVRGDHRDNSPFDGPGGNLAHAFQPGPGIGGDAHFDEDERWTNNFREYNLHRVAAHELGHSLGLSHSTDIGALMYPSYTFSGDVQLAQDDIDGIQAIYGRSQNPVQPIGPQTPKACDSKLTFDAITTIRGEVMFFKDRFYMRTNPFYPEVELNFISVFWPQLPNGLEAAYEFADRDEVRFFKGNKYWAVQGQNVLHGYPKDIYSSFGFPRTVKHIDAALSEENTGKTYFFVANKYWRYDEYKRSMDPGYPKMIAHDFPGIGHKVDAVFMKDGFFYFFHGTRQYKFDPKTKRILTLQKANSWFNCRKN
Experimental: Test 6 MMP-1 Inhibition Activity Test
MMP-1 (stroma collagenase: EC3.4.24.7, human rheumatic synovium fibroblast, calbiochem cat. 444208) was activated with AMPA at 37° C. for 60 minutes. A test compound was preincubated with activated MMP-1 at 37° C. for 60 minutes in the reaction mixture containing 50 mM MOPS (pH 7.2), 10 mM aqueous calcium chloride solution, and 10 μM zinc chloride. Thereto was added 25 μM Mca-Pro-Leu-Dpa-Ala-Arg-NH2, and the mixture was incubated at 37° C. for 120 minutes. The enzyme activity was measured by fluorescence intensity of Mca-Pro-Leu-Gly, and IC50 was calculated.

MMP-14 (MT1-MMP) = biological target: T3, MMP-14 (MT1-MMP) (Homo sapiens, UniProt P50281); assay: Test 5 MMP-14 (MT1-MMP) inhibiting activity test; details: human recombinant MT1-MMP, 37° C.; read-out: MMP-14 inhibition activity value
T3 construct: purchased Biogenesis, supplied by Cosmobio (Nakarai Tesku)
Experimental: Test 5 MMP-14 (MTI-MMP) Inhibiting Activity Test
Human recombinant MTI-MMP used the product prepared by Biogenesis and supplied by Cosmobio (Nakarai Tesku).
An assay buffer solution (70 μl, pH 7.5 solution containing 0.1M Tris-HCl solution, 0.1M calcium chloride solution, 10 mM sodium chloride solution and 0.05% Brij-35 solution), 0.1 w/w % a compound in DMSO (10 μl), MMP substrate solution (MOCAc-Pro-Leu-Gly-Leu-A2pr(DNP)-Ala-Arg-NH2 (Peptide Lab.) diluted with the assay buffer solution (50 μM, 10 μl)) and human recombinant MT1-MMP (0.4 pg/10 μl/well) were well agitated under stirring. The enzyme activity of the mixture was measured based on fluorescence intensity (λex 320 nm/λem 405 nm) by a fluorescence reader. After the mixture was incubated at 37° C. for 0.5 hour, the fluorescence intensity (λex 320 nm/λem 405 nm) was measured every hour, and IC50 was calculated.
The inhibition value was calculated by withdrawing average value of blank well from fluorescence mean value of well in which MT1-MMP was added. As the blank was used the mixed solution prepared by adding assay buffer (10 μl) instead of MT1-MMP solution.

Structure (SMILES)	IC50 (MMP-13) [nM]	IC50 (MMP-1) [nM]	IC50 (MMP-14 (MT1-MMP)) [nM]
CCOC(=O)CN(C1(C(=O)NO)CCCC1)S(=O)(=O)c1ccc(Oc2ccc(S(C)(=O)=O)cc2)cc1 [Example 23, Ethyl N-{1-[(hydroxyamino)carbonyl]cyclopentyl}-N-({4-[4-(methylsulfonyl)phenoxy]phenyl}sulfonyl)glycinate]	4.1	> 10000	> 5000
CS(=O)(=O)c1ccc(Oc2ccc(S(=O)(=O)NCC(=O)NO)cc2)cc1 [Example 13, N′^1′-Hydroxy-N′^2′-({4-[4-(methylsulfonyl)phenoxy]phenyl}sulfonyl)glycinamide]	10.8	> 10000	> 5000
CS(=O)(=O)c1ccc(Oc2ccc(S(=O)(=O)N(CC(=O)NO)Cc3ccncc3)cc2)cc1 [Example 42, N′^1′-Hydroxy-N′^2′-({4-[4-(methylsulfonyl)phenoxy]phenyl}sulfonyl)-N′^2′-(4-pyridinylmethyl)glycinamide]	4.02	> 10000	> 5000
CS(=O)(=O)c1ccc(Oc2ccc(S(=O)(=O)N(CCC(=O)O)C3(C(=O)NO)CCCC3)cc2)cc1 [Example 27, N-{1-[(Hydroxyamino)carbonyl]cyclopentyl}-N-({4-[4-(methylsulfonyl)phenoxy]phenyl}sulfonyl)-β-alanine]	21.3		> 5000
CS(=O)(=O)c1ccc(Oc2ccc(CC3Sc4ccc(C(=O)O)cc4N(CC(=O)NO)C3=O)cc2)cc1 (centres unmarked) [Example 50]	3		> 1000
CCOC(=O)CN(CC(=O)NO)S(=O)(=O)c1ccc(Oc2ccc(S(C)(=O)=O)cc2)cc1 [Example 22, Ethyl N-{[(hydroxyamino)carbonyl]methyl}-N-({4-[4-(methylsulfonyl)phenoxy]phenyl}sulfonyl)-glycinate]	1.9	> 10000	668
COCCCN(CC(=O)NO)S(=O)(=O)c1ccc(Oc2ccc(S(C)(=O)=O)cc2)cc1 [Example 43, N^1-Hydroxy-N^2-(3-methoxypropyl)-N^2-({4-[4-(methylsulfonyl)phenoxy]phenyl}sulfonyl)glycinamide]	< 0.5		82
CCOC(=O)CCN(C1(C(=O)NO)CCOCC1)S(=O)(=O)c1ccc(Oc2ccc(S(C)(=O)=O)cc2)cc1 [Example 31, Ethyl N-{4-[(hydroxyamino)carbonyl]tetrahydro-2H-pyran-4-yl}-N-({4-[4-(methylsulfonyl)phenoxy]phenyl}sulfonyl)-β-alaninate]	11.2		> 5000
COc1ccc(Oc2ccc(CC3Sc4ccc(C(=O)O)cc4N(CC(=O)NO)C3=O)cc2)cc1 (centres unmarked) [compound 1, reference compound]	7.4		87.3
CCOC(=O)CN(C1(C(=O)NO)CCC1)S(=O)(=O)c1ccc(Oc2ccc(S(C)(=O)=O)cc2)cc1 [Example 46, Ethyl N-{1-[(hydroxyamino)carbonyl]cyclobutyl}-N-({4-[4-(methylsulfonyl)phenoxy]phenyl}sulfonyl)glycinate]	10.5		> 1500
CS(=O)(=O)c1ccc(Oc2ccc(S(=O)(=O)N(CCC(=O)O)CC(=O)NO)cc2)cc1 [Example 36, N-[2-(Hydroxyamino)-2-oxoethyl]-N-({4-[4-(methylsulfonyl)phenoxy]phenyl}sulfonyl)-β-alanine]	3.81		938
COCCN(CC(=O)NO)S(=O)(=O)c1ccc(Oc2ccc(S(C)(=O)=O)cc2)cc1 [Example 44, N^1-Hydroxy-N^2-(2-methoxyethyl)-N^2-({4-[4-(methylsulfonyl)phenoxy]phenyl}sulfonyl)glycinamide]	0.5		343
CS(=O)(=O)c1ccc(Oc2ccc(S(=O)(=O)NC3(C(=O)NO)CCC3)cc2)cc1 [Example 48, N-Hydroxy-1-[({4-[4-(methylsulfonyl)phenoxy]phenyl}sulfonyl)amino]cyclobutanecarboxamide]	6.9		> 1500
CCOC(=O)CCN(C1(C(=O)NO)CCCC1)S(=O)(=O)c1ccc(Oc2ccc(S(C)(=O)=O)cc2)cc1 [Example 26, Ethyl N-{1-[(hydroxyamino)carbonyl]cyclopentyl}-N-({4-[4-(methylsulfonyl)phenoxy]phenyl}sulfonyl)-β-alaninate]	1.9	3900	395
CS(=O)(=O)c1ccc(Oc2ccc(S(=O)(=O)N(CC(=O)O)CC(=O)NO)cc2)cc1 [Example 24, N-{[(Hydroxyamino)carbonyl]methyl}-N-({4-[4-(methylsulfonyl)phenoxy]phenyl}sulfonyl)-glycine]	16.3		> 5000
CC(C)OCCN(CC(=O)NO)S(=O)(=O)c1ccc(Oc2ccc(S(C)(=O)=O)cc2)cc1 [Example 3, N^1-hydroxy-N^2-(2-isopropoxyethyl)-N^2-({4-[4-(methylsulfonyl)phenoxy]phenyl}sulfonyl)glycinamide]	0.5		172
CS(=O)(=O)c1ccc(Oc2ccc(S(=O)(=O)N(Cc3ccccc3)C3(C(=O)NO)CCOCC3)cc2)cc1 [Example 12, 4-[Benzyl({4-[4-(methylsulfonyl)phenoxy]phenyl}sulfonyl)amino]-N-hydroxytetrahydoro-2H-pyrane-4-carboxamide]	4	> 10000	893
CC(C)(C(=O)NO)N(Cc1ccccc1)S(=O)(=O)c1ccc(Oc2ccc(S(C)(=O)=O)cc2)cc1 [Example 10, N′^2′-Benzyl-N′^1′-hydroxy-2-methyl-N′^2′-({4-[4-(methylsulfonyl)phenoxy]phenyl}sulfonyl)alaninamide]	34.4		> 5000
CC(C)CN(C1(C(=O)NO)CCOCC1)S(=O)(=O)c1ccc(Oc2ccc(S(C)(=O)=O)cc2)cc1 [Example 15, N-Hydroxy-4-[isobutyl({4-[4-(methylsulfonyl)phenoxy]phenyl}sulfonyl)amino]tetrahydro-2H-pyrane-4-carboxamide]	24.6		> 5000
